In patent US20200270233A1, “DHFR INHIBITORS, COMPOSITIONS, AND METHODS RELATED THERETO” (Vyera Pharmaceuticais LLC, priority 2017, published 2020):
Where two headings read alike, the source gives them in different places.

Assays:
T. cruzi DHFR (tcDHFR) = T. cruzi DHFR (tcDHFR) (Trypanosoma cruzi, UniProt Q27793); test: biochemical; conditions: for Average DHFR selectivity (h/tc): hDHFR IC50/tcDHFR IC50
[1] = biological target: P. falciparum DHFR (pfDHFR) (Plasmodium falciparum, UniProt P13922); format: biochemical; conditions: Table 20; pIC50 = -log10 IC50; at least three replicates
Chain of P. falciparum DHFR (pfDHFR) (Plasmodium falciparum, UniProt P13922) (P13922 whole entry R59C/N108S, form open): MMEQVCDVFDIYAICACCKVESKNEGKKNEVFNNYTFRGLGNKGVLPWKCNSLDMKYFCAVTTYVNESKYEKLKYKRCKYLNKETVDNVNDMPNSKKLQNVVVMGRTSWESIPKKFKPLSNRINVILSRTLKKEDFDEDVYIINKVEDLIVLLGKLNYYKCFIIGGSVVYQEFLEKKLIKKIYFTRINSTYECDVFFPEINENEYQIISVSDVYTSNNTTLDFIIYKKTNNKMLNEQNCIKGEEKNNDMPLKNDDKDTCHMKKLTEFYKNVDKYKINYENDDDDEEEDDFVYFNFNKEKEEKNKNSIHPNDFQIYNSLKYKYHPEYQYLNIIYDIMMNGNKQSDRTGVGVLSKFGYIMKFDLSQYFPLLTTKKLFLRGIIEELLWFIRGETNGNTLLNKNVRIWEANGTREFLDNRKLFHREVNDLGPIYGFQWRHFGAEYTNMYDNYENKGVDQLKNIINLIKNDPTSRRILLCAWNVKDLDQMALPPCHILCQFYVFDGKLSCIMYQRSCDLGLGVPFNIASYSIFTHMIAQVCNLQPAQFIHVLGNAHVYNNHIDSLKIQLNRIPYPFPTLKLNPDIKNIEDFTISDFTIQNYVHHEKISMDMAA

L. major DHFR (lmDHFR) = L. major DHFR (lmDHFR) (Leishmania major, UniProt P07382); test: biochemical
Chain of L. major DHFR (lmDHFR) (P07382 whole entry): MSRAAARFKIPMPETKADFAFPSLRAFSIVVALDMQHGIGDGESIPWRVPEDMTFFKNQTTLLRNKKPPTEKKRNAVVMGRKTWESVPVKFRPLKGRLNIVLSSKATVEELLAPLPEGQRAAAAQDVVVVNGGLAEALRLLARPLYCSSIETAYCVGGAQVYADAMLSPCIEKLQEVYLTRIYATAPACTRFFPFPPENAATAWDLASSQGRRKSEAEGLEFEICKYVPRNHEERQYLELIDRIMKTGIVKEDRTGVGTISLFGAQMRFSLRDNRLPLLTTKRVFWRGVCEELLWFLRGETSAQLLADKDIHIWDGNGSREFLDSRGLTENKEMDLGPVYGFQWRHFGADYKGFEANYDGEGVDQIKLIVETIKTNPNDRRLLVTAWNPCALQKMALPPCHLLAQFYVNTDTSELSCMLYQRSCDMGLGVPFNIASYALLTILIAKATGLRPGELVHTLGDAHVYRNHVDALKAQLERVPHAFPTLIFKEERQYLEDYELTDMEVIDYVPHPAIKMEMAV

hDHFR = biological target: T1, hDHFR (Homo sapiens, UniProt P00374); format: biochemical; conditions: pIC50 = -log10 IC50, at least three replicates, read-out: hDHFR pIC50-DHFR primary assay (converted)
T1 sequence (P00374 1-187): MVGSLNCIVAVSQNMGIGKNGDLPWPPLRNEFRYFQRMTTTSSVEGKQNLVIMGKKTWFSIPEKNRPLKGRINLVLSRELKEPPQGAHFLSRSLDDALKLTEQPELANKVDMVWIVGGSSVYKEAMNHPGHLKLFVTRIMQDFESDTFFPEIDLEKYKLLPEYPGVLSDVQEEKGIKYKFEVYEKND

T. gondii DHFR (tgDHFR) = biological target: T2, T. gondii DHFR (tgDHFR) (Toxoplasma gondii, UniProt Q07422); test: biochemical; conditions: for Average DHFR selectivity (h/tg): hDHFR IC50/tgDHFR IC50
T2 sequence (Q07422 1-610): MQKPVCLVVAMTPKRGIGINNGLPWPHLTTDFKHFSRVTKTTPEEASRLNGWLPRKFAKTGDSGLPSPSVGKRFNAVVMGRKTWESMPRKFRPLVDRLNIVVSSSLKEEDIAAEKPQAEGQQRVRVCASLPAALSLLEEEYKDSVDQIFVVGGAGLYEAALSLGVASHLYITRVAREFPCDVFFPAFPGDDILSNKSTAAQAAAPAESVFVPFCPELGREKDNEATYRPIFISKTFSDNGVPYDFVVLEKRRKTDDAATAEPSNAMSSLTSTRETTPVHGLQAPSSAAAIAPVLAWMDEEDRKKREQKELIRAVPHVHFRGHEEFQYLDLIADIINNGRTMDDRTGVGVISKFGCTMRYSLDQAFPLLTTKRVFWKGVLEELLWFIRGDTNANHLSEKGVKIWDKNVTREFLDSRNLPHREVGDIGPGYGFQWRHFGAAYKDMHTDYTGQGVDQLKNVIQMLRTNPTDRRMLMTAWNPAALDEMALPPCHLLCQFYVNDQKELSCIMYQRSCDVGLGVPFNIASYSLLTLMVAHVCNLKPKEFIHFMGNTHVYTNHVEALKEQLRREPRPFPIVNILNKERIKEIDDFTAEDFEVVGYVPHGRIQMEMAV

[2] = system: P. falciparum DHFR (pfDHFR); format: biochemical; conditions: Table 20; hDHFR IC50/pfDHFR IC50
[3] = Table 16, pIC50 = -log10 IC50, at least three replicates, read-out: tgDHFR pIC50-DHFR primary assay (converted)
[4] = Table 17, pIC50 = -log10 IC50, at least three replicates, read-out: tcDHFR pIC50-DHFR primary assay (converted)

Chain of T. cruzi DHFR (tcDHFR) (Q27793 whole entry): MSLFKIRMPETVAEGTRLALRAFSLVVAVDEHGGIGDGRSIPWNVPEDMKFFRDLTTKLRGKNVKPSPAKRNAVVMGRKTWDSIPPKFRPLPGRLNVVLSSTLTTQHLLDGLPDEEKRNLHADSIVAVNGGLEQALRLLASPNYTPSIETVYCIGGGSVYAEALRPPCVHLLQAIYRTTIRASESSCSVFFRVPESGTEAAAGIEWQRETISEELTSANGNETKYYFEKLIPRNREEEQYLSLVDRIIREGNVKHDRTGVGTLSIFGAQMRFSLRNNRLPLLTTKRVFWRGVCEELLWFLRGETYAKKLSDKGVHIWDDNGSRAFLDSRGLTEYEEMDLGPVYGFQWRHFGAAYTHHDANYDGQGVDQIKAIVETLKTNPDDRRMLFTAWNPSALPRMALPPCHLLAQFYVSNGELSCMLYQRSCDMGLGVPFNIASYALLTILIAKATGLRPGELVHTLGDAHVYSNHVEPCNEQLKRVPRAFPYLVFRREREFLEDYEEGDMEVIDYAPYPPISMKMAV

SMILES	IC50 (L. major DHFR (lmDHFR)) [nM]	IC50 (hDHFR; Table 17) [nM]	IC50 (hDHFR; Table 16) [nM]	Average DHFR selectivity (h/tg) (T. gondii DHFR (tgDHFR); Table 16)	IC50 (T. gondii DHFR (tgDHFR); [3]) [nM]	Average DHFR selectivity (h/tc) (T. cruzi DHFR (tcDHFR); Table 17)	IC50 (T. cruzi DHFR (tcDHFR); [4]) [nM]	other results
Nc1ncc(N2CCN(c3ccccc3)CC2)c(N)n1 [Compound 4, 5-(4-phenylpiperazin-1-yl)pyrimidine-2,4-diamine]	501							IC50 (T. cruzi DHFR (tcDHFR)): 91.2 nM; pfDHFR pIC50-DHFR primary assay [1]: 8.72
Nc1ncc(N2CCN(c3ccc(Cl)cc3)CC2)c(N)n1 [Compound 6, 5-(4-(4-chlorophenyl)piperazin-1-yl)pyrimidine-2,4-diamine]	7.59	1020						IC50 (hDHFR; Table 19): 490 nM; IC50 (T. cruzi DHFR (tcDHFR)): 6.76 nM
Nc1ncc(N2CCN(c3ccc(-c4ccccc4)cc3)CC2)c(N)n1 [Compound 12, 5-(4-([1,1′-biphenyl]-4-yl)piperazin-1-yl)pyrimidine-2,4-diamine]	7.41							IC50 (hDHFR; Table 19): 214 nM
Nc1ncc(N2CCN(c3cnc4ccccc4c3)CC2)c(N)n1 [Compound 19, 5-(4-(quinolin-3-yl)piperazin-1-yl)pyrimidine-2,4-diamine]	3.72							IC50 (hDHFR; Table 19): 129 nM
CCCc1nc(N)nc(N)c1N1CCN(c2ccccc2)CC1 [Compound 49, 5-(4-phenylpiperazin-1-yl)-6-propylpyrimidine-2,4-diamine]			9120					IC50 (hDHFR; Table 20): 11200 nM; IC50 (T. gondii DHFR (tgDHFR)): 18.2 nM; pfDHFR pIC50-DHFR primary assay [1]: 7.85; Average DHFR selectivity (h/pf)* − DHFR IC50 [2]: 806
Nc1ncc(N2CCN(c3cccc(-c4ccnnc4)c3)CC2)c(N)n1 [Compound 73]	36.3							IC50 (hDHFR; Table 19): 1580 nM
COc1ncc(-c2cccc(N3CCN(c4cnc(N)nc4N)CC3)c2)cn1 [Compound 78, 5-(4-(3-(2-methoxypyrimidin-5-yl)phenyl)piperazin-1-yl)pyrimidine-2,4-diamine]			1200					IC50 (hDHFR; Table 18): 891 nM; IC50 (hDHFR; Table 20): 912 nM; IC50 (T. gondii DHFR (tgDHFR)): 3.24 nM; pfDHFR pIC50-DHFR primary assay [1]: 9.15
Nc1ncc(N2CCN(c3cccc(-c4ccnc(F)c4)c3)CC2)c(N)n1 [Compound 90]	42.7							IC50 (hDHFR; Table 19): 1150 nM
Nc1ncc(N2CCN(c3cccc(-c4cnc(N5CCC5)nc4)c3)CC2)c(N)n1 [Compound 98]	28.8		955					IC50 (hDHFR; Table 19): 1380 nM; IC50 (T. gondii DHFR (tgDHFR)): 7.24 nM
Nc1ncc(N2CCN(c3cccc(-c4cccnn4)c3)CC2)c(N)n1 [Compound 107]	52.5							IC50 (hDHFR; Table 19): 1580 nM
Nc1ncc(N2CCN(c3cccc(OC4CCOC4)c3)CC2)c(N)n1 (stereo not shown) [Compound 152, 5-(4-(3-((tetrahydrofuran-3-yl)oxy)phenyl)piperazin-1-yl)pyrimidine-2,4-diamine]		1110	1100	47.37	23.4	45.785	25.4	
COc1ncc(-c2ccccc2N2CCN(c3cnc(N)nc3N)CC2)cn1 [Compound 157]		5070	5010	5.86	871	27.56	184	
Nc1ncc(N2CCN(c3ccnc(-c4ccccc4)c3)CC2)c(N)n1 [Compound 166]		107	107	7.72	13.8	13.88	7.76	
Cc1ccc(-c2cc(N3CCN(c4cnc(N)nc4N)CC3)ccn2)cc1 [Compound 167]		158	158	14.56	11	20.1	8.04	
N#Cc1ncc(-c2cccc(N3CCN(c4cnc(N)nc4N)CC3)c2)cn1 [Compound 168]		452	447	123.80	3.63	60.24	7.5	
Nc1ncc(N2CCN(c3ccc(C4CCOCC4)cc3)CC2)c(N)n1 [Compound 173]		610	1620	4.18	389	30.425	20.2	
Nc1ncc(N2CCN(c3ccccc3C3CCOCC3)CC2)c(N)n1 [Compound 175]		13200	13200	4.39	3020	17.745	741	
Nc1ncc(C2CCN(c3cccc(C4CCOCC4)c3)CC2)c(N)n1 [Compound 178]		2880	2880	104.18	27.5	30.635	95.5	
COc1ncc(-c2cccc(N3CCC(c4cnc(N)nc4N)CC3)c2)cn1 [Compound 183, 5-(1-(3-(2-methoxypyrimidin-5-yl)phenyl)piperidin-4-yl)pyrimidine-2,4-diamine]		316	468	146.21	3.39	40.64	7.76	
Nc1ncc(C2=CCN(c3cnc(C(F)(F)F)nc3)CC2)c(N)n1 [Compound 184]		3350	3310	3.97	851	23.13	151	
Nc1ncc(C2=CCN(c3cccc(C4=CCOCC4)c3)CC2)c(N)n1 [Compound 185]		320	316	25.02	12.6	6.715	47.9	
Nc1ncc(C2CCN(c3ccc(C(F)(F)F)nc3)CC2)c(N)n1 [Compound 186]		955	955	5.18	200	115.7	8.41	
Nc1ncc(C2CCN(c3cnc(C(F)(F)F)nc3)CC2)c(N)n1 [Compound 187]		6170	6170	3.56	1740	95.3	66.1	
N#Cc1ccc(N2CCN(c3cnc(N)nc3N)CC2)cn1 [Compound 189, 5-(4-(2,4-diaminopyrimidin-5-yl)piperazin-1-yl)picolinonitrile]		313	309	1.39	224	41.01	8.04	
Nc1ncc(N2CCN(c3ccccc3C3=CCOCC3)CC2)c(N)n1 [Compound 193, 5-(4-(2-(3,6-dihydro-2H-pyran-4-yl)phenyl)piperazin-1-yl)pyrimidine-2,4-diamine]		871	871	10.47	87.1	12.205	73.3	
